Results: patent US20210353595A1, “USE OF MELATONIN IN PREPARATION OF MEDICAMENT FOR INHIBITING AND/OR KILLING BACTERIUM” (priority 2020, published 2021)

Experiments:
Pseudomonas aeruginosa = experiment: Growth curve with melatonin and citric acid; format: cell-based; conditions: MT 1-3 mg/mL with CA 1-3 mg/mL, FIG. 27
Protocol: (§1) In additional studies, 1 mL of Klebsiella pneumoniae, Pseudomonas aeruginosa, Diplococcus pneumoniae and Streptococcus pneumoniae at the logarithmic growth stage was added into 100 mL of fresh and sterile Martin broth medium containing different concentrations of melatonin and citric acid (CA) (MT-1 mg/mL, MT-1 mg/mL-CA-1 mg/mL, MT-1 mg/mL-CA-2 mg/mL, MT-1 mg/mL-CA-3 mg/mL; MT-2 mg/mL, MT-2 mg/mL-CA-1 mg/mL, MT-2 mg/mL-CA-2 mg/mL, MT-2 mg/mL-CA-3 mg/mL; MT-3 mg/mL, MT-3 mg/mL-CA-1 mg/mL, MT-3 mg/mL-CA-2 mg/mL MT-3 mg/mL-CA-3 mg/mL).

Klebsiella pneumoniae = experiment: Growth curve with melatonin and citric acid; format: cell-based; conditions: MT 1-3 mg/mL with CA 1-3 mg/mL, FIG. 27
Protocol: as §1

Pasteurella multocida [1] = experiment: Growth curve with exogenous citric acid; format: cell-based; conditions: citric acid 1, 2, 3 mg/mL alone; FIG. 16
Protocol: Here, 1 mL of Pasteurella multocida (1×10^9 CFU) at the logarithmic growth stage was added into 100 mL of fresh and sterile Martin broth medium containing different concentrations of citric acid (CA-1 mg/ml, CA-2 mg/mL, and CA-3 mg/mL), and citric acid-free DMSO was used as a solvent control group. The bacterial cells were cultured in a constant-temperature shaker at 37° C. and 220 rpm for […]. Then, the growth curve of the cells was determined. Each experiment was repeated for three times, and each group was set in triplicate.

P. multocida cells = experiment: SEM and TEM morphology of bacterial cells; format: cell-based, Pasteurella multocida; conditions: combined action of melatonin and citric acid; FIG. 18
Protocol: The effect of melatonin on the morphologies of P. multocida cells were evaluated employing SEM and TEM. 1 mL of fresh Pasteurella multocida (1×10^9 CFU) at the logarithmic growth stage was added into 100 mL of fresh Martin liquid medium containing different concentrations (1, 2 or 3 mg/mL) of MT. MT-free DMSO was used as a solvent control group and ampicillin (100 μg/mL) was used as a positive control group. All cultures were shaken at 220 rpm in a shaker at 37° C. for 8 hours, 12 hours or 16 hours. The bacterial samples were centrifuged at 3000 r/min for 10 minutes, the supernatant was removed, and cells were collected and washed with PBS for 3 times. Then the cells were fixed with a fixation solution of 2.5% fresh glutaraldehyde for 6 hours, and washed with PBS for 3 times, each time for 10 minutes. Subsequently, the SEM samples were dehydrated with 50%, 70%, 80% and 90% ethanol for 15 minutes respectively, and then dehydrated with 100% ethanol for 3 times, each time for 30 minutes. Ethanol was removed by washing with tert-butyl alcohol for three times, each time for 30 minutes. The samples were dried by a freeze dryer and plated with 10 nm of gold film by an ion sputtering device. The samples were examined using a field scanning electron microscope (FESEM, Hitch SU8010).
The TEM samples were fixed with 1%-2% […] for 2-3 hours, and washed with […] 3 times, each time for 10 minutes. The samples were dehydrated with 30%, 50%, 70%, 80% and 90% ethanol for 20 minutes respectively, and then dehydrated with 100% ethanol 3 times, each time for 30 minutes. Ethanol was replaced with acetone three times, each time for 30 minutes. The bacterial samples were placed on a copper grid with a formvar membrane, and negatively stained with phosphotungstic acid (2% v/v, pH=6.7). The surface area of the sample was less than 0.2 mm×0.2 mm, and slice thickness was between 50 and 90 nm (Lycra UC7). The samples were detected by TEM (Hitachi H-7650) at 80 kV, and photographs of the samples were taken by a Gatan832 CCD camera (Gatan). […]

Pasteurella multocida [2] = experiment: Growth curve with melatonin and citric acid; format: cell-based; conditions: MT 1-3 mg/mL with CA 1-3 mg/mL, 12 h; FIG. 17
Protocol: 1 mL of Pasteurella multocida (1×10^9 CFU) at the logarithmic growth stage was also added into 100 mL of fresh and sterile Martin broth medium containing different concentrations of melatonin and citric acid (CA) (MT-1 mg/mL, MT-1 mg/mL-CA-1 mg/mL, MT-1 mg/mL-CA-2 mg/mL, MT-1 mg/mL-CA-3 mg/mL; MT-2 mg/mL, MT-2 mg/mL-CA-1 mg/mL, MT-2 mg/mL-CA-2 mg/mL, MT-2 mg/mL-CA-3 mg/mL; MT-3 mg/mL, MT-3mg/mL-CA-1 mg/mL, MT-3 mg/mL-CA-2 mg/mL, and MT-3 mg/mL-CA-3 mg/mL). DMSO not containing melatonin and citric acid was used as a solvent control group, and the bacterial cells were cultured in a constant-temperature shaker at 37° C. and 220 rpm for 12 h. Then the growth curve of the cells were determined. Each experiment was carried out for three times, and each group was set in triplicate.

Pasteurella multocida [3] = experiment: Leakage of cell contents with melatonin and citric acid; format: cell-based; conditions: MT with CA (1/1, 2/2, 3/3 mg/mL), 12 h
Protocol: Additionally, 1 mL of Pasteurella multocida (1×10^9 CFU) at the logarithmic growth stage was added into 100 mL of fresh and sterile Martin broth medium containing different concentrations of melatonin and citric acid (CA) (MT-1 mg/mL, MT-2 mg/mL, MT-3 mg/mL, CA-1 mg/mL, CA-2 mg/mL, CA-3 mg/mL, MT-1 mg/mL-CA-1 mg/mL, MT-2 mg/mL-CA-2 mg/mL, MT-3 mg/mL-CA-3 mg/mL). The melatonin-free DMSO was used as a solvent control group, and the bacterial cells were cultured in a shaker at 37° C. and 220 rpm for 12 h. Thereafter, 1 mL of the bacterial solution was taken and centrifuged at 3000 r/min for 10 minutes, and the supernatant and precipitated cells were collected, respectively. At the same time, 2.5 mmol/mL of […] (ONPG) and Pasteurella multocida were added to detect ([…]. The concentrations of protein, alkaline phosphatase (AKP) and reducing sugar in the supernatant were determined sequentially using respective determination kits. The β-galactosidase in the supernatant was determined by measuring the optical density at 420 nm (OD420). Each experiment was carried out for three times, and each group was set in triplicate.

O=C(O)CC(O)(CC(=O)O)C(=O)O [citric acid] was tested, and the “effect of exogenous citric acid on bacteriostatic effect of melatonin” value (Pseudomonas aeruginosa) was “can reduce the bacteriostatic effect of melatonin”, the “effect of exogenous citric acid on bacteriostatic effect of melatonin” value (Klebsiella pneumoniae) was “can reduce the bacteriostatic effect of melatonin” and the “growth of Pasteurella multocida” value (Pasteurella multocida [1]) was “promotes the growth”. For the same compound, the “cytoplasmic vacuolization and irregular cell membrane caused by melatonin (TEM)” value (P. multocida cells) was “disappeared”, the “effect of added citric acid on antibacterial activity of melatonin” value (Pasteurella multocida [2]) was “reduces the antibacterial activity of melatonin” and the “melatonin-induced release of reducing sugar” value (Pasteurella multocida [3]; FIG. 19) was “significantly reduces”. The “melatonin-induced release of proteins” value (Pasteurella multocida [3]; FIG. 20) was “significantly reduces”, the “melatonin-induced release of AKP enzymes (alkaline phosphatase)” value (Pasteurella multocida [3]; FIG. 21) was “significantly reduces” and the “melatonin-induced release of β-galactosidase” value (Pasteurella multocida [3]; FIG. 22) was “significantly reduces”. The “melatonin-induced activity (release) of ATPase” value (Pasteurella multocida [3]; FIG. 23) was “significantly reduces”.
